Source: patent publication US10030030B2, “Crystals of dispiropyrrolidine derivatives” (Daiichi Sankyo Company, Limited, priority 2012, dated 2018)

Assays:
[1] = target: T1, Mdm2/p53 binding (His-p53 and GST-Mdm2) (Homo sapiens, UniProt Q00987, L33E); test: Mdm2/p53 binding assay (HTRF); settings: His-p53 (aa 1-132) / GST-Mdm2 (aa 25-108, L33E), 6.25 nM each, 25° C., 1 hour
T1 construct: Mdm2 amino acids at positions 25 to 108
Description: A protein dilution containing 6.25 nM each of His-p53 (fusion protein of a p53 partial protein having p53 amino acids at positions 1 to 132, with a histidine protein) and GST-Mdm2 (fusion protein of a Mdm2 partial protein, having Mdm2 amino acids at positions 25 to 108 with leucine residue 33 substituted by glutamic acid, with glutathione transferase) proteins was prepared using a protein buffer solution (20 mM HEPES pH 7.4, 150 mM NaCl, 0.1% BSA). This protein dilution was added in an amount of 8 μL/well to a 384-well plate (384-well low volume NBC, Corning Inc., catalog No: 3676). […]
Time-resolved fluorescence at 620 and 665 nm was measured at an excitation wavelength of 320 nm using a plate reader (ARVOsx, PerkinElmer Co., Ltd. or PHERAstar, BMG LABTECH). Ratio (R) was calculated using the measured values (RFU 620 nm and RFU 665 nm) according to the following formula: R=(RFU 665 nm−BI−C×RFU 620 nm)/RFU 620 nm
BI: measured value at 665 nm of reaction solution (only each buffer solution) nonsupplemented with each protein, the compound, and the antibodies […]
A and D: each measured value at 665 nm and 620 nm of reaction solution supplemented with only Eu-labeled anti-GST antibody solution.
The R value calculated from the well supplemented with His-p53, GST-Mdm2, the test compound, and each antibody was defined as R (sample). […] T/C was calculated from the formula shown below. […]

[2] = system: human lung cancer-derived cell line NCI-H460 having wild-type p53; test: Cell growth inhibition assay (MTT); type: cell-based; settings: 72 h, NCI-H460 cells, 3 days culture, read-out: cell growth inhibiting effect GI50
Description: A cell growth inhibition assay was conducted using human lung cancer-derived cell line NCI-H460 having wild-type p53.
NCI-H460 cells were suspended in a medium (RPMI1640 medium containing 10% fetal bovine serum) and the suspension was inoculated in an amount of 500 cells/150 μL/well to a 96-well multiwell plate. A test compound was dissolved in DMSO and this solution was diluted with medium to prepare a sample solution (DMSO concentration: 1% or lower). On the next day of inoculation, medium nonsupplemented with the test compound or the sample solution was added in an amount of 50 μL/well. […]
A 5 mg/mL MTT (3-(4,5-dimethylthiazol-2-yl)-2,5-diphenyltetrazolium bromide, Sigma-Aldrich Co., M-2128) solution was prepared using a phosphate buffer solution (Dulbecco's Phosphate-buffered Saline). […] The absorbance of each well was measured under conditions of OD 540 nm and reference 660 nm using a plate reader (SpectraMax PLUS384, Molecular Devices, Calif., USA).
The OD value measured on the day of adding the sample solution was defined as S. The OD value measured three days after addition of the sample solution was defined as T. The OD value measured three days after addition of the DMSO dilution was defined as C. […]

T1 sequence (Q00987 25-108 L33E): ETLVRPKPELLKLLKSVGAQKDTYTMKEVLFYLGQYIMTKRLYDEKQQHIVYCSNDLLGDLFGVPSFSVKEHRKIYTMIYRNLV

CC1(C)CCC2(CC1)N[C@@H](C(=O)N[C@@H]1CC[C@@H](C(N)=O)OC1)[C@H](c1ccnc(Cl)c1F)[C@]21C(=O)Nc2cc(Cl)ccc21 [compound (1), (3′R,4′S,5′R)—N-[(3R,6S)-6-carbamoyltetrahydro-2H-pyran-3-yl]-6″-chloro-4′-(2-chloro-3-fluoropyridin-4-yl)-4,4-dimethyl-2″-oxo-1″,2″-dihydrodispiro[cyclohexane-1,2′-pyrrolidine-3′,3″-indole]-5′-carboxamide] was tested, and the IC50 [1] was at most 100 nM and the GI50 [2] was under 100 nM.
